Measurements reported in US20210220328A1, “PYRROLE DERIVATIVES AS ACC INHIBITORS” (Almirall, S.A., priority 2017, published 2021).

Tested on: immortalized human sebocyte cell line, SZ95
Assay: In vitro assay of inhibition of lipid synthesis
Assay type: cell-based
Details: 48 h, SZ95 sebocytes
Method: In Vitro Assay of Inhibition of Lipid Synthesis
To evaluate the inhibition of lipid synthesis, the immortalized human sebocyte cell line, SZ95 (stablished by Zouboulis, C. C. et al J Invest Dermatol 1999; 113:1011-20), was treated with arachidonic acid (AA) in presence or absence of compound. Lipids were detected by using a lipid sensing fluorophore.
Compounds were dissolved in dimethylsulfoxide (DMSO) 100%. Then the stocks were serial diluted 1/3 in DMSO 100%, and this battery of solutions were diluted 1/10 in culture medium, to minimize the percentage of the DMSO over cells.
10 k cells were plated in 384 well microtiter plates and incubated at 37° C. and 5% CO2 in DMEM/F12 supplemented with 10% FBS, 1.25 ng/ml of rhEGF and GA-1000 before of compound and stimulus addition. After 24 h, compounds dissolved in culture media were added over cells, diluting the solutions prepared 1/40 in the final volume of the assay. Then, cells and compounds were preincubated for 30 min at 37° C. and 5% CO2. After this prior incubation, the lipid synthesis was induced by 75 μM of AA final solution, preparing a solution 10× in culture media. Finally, SZ95 treated were incubated for 48 h at 37° C. and 5% CO2.
Neutral lipids were measured using AdipoRed™, purchased from LONZA. To do that, cells were washed with PBS and incubated with a solution of AdipoRed™ (final dilution 1/80 in PBS) for 30 min at room temperature. After the staining process, the fluorescence intensity (FI) was quantified using a fluorescence plate reader (excitation 485 nm; emission 535).
Activity of compounds were calculated as % of inhibition considering the maximal fluorescence for AA-stimulated cells and the minimum fluorescence for unstimulated cells as controls.

[1] = 75 μM arachidonic acid, AdipoRed, Table 2, finer classes for compounds with IC50 less than 250 nM
[2] = lipid synthesis induced by 75 μM arachidonic acid, AdipoRed fluorescence, Table 1

Compound	IC50 [1]	IC50 [2]
CCCCCCCCCCCCCc1c[nH]c(C(=O)OCCCCCCCO)c1F [Example 37, 7-Hydroxyheptyl 3-fluoro-4-tridecyl-1H-pyrrole-2-carboxylate]	100 to 250 nM	< 250 nM
CCCCCCCCCCCCCc1c[nH]c(C(=O)OC(C)OC(=O)OC(C)(C)C)c1F (centres unmarked) [Example 45, 1-((Tert-butoxycarbonyl)oxy)ethyl 3-fluoro-4-tridecyl-1H-pyrrole-2-carboxylate]	50 to 100 nM	< 250 nM
CCCCCCCCCCCCc1c[nH]c(C(=O)O)c1Cl [Example 58, 3-Chloro-4-dodecyl-1H-pyrrole-2-carboxylic acid]	< 50 nM	< 250 nM
CCCCCCCCCCCCOc1c[nH]c(C(=O)O)c1 [Example 1, 4-(Dodecyloxy)-1H-pyrrole-2-carboxylic acid]	–	250 to 1000 nM
CCCCCCCCCCCCCc1c[nH]c(C(=O)OC(C)OC(=O)OC(C)C)c1Cl (centres unmarked) [Example 110, 1-((Isopropoxycarbonyl)oxy)ethyl 3-chloro-4-tridecyl-1H-pyrrole-2-carboxylate]	100 to 250 nM	< 250 nM
CCCCCCCCCCCCc1cc(Cl)c(C(=O)O)n1C [Example 130, 3-Chloro-5-dodecyl-1-methyl-1H-pyrrole-2-carboxylic acid]	100 to 250 nM	> 5000 nM
CCCCCCCCCCCCCc1c[nH]c(C(=O)OCc2ccccc2)c1F [Example 26, Benzyl 3-fluoro-4-tridecyl-1H-pyrrole-2-carboxylate]	100 to 250 nM	< 250 nM
CCCCCCCCCC(F)(F)CCc1cc(Cl)c(C(=O)O)[nH]1 [Example 128, 3-Chloro-5-(3,3-difluorododecyl)-1H-pyrrole-2-carboxylic acid]	< 50 nM	250 to 1000 nM
CCCCCCCCCCCCSc1c[nH]c(C(=O)O)c1F [Example 76, 4-(Dodecylthio)-3-fluoro-1H-pyrrole-2-carboxylic acid]	–	1000 to 5000 nM
CCCCCCCCCCCCOc1c[nH]c(C(=O)OCCOCCOCCOCCO)c1 [Example 7, 2-(2-(2-(2-Hydroxyethoxy)ethoxy)ethoxy)ethyl 4-(dodecyloxy)-1H-pyrrole-2-carboxylate]	–	> 5000 nM
CCCCCCCCCCCCCCCCCCc1cc(F)c(C(=O)O)[nH]1 [Example 125, 3-Fluoro-5-octadecyl-1H-pyrrole-2-carboxylic acid]	–	< 250 nM
CCCCCCCCCCCCCc1c[nH]c(C(=O)OCC)c1F [Example 20, Ethyl 3-fluoro-4-tridecyl-1H-pyrrole-2-carboxylate]	–	1000 to 5000 nM
CCCCCCCCCCCCc1c[nH]c(C(=O)OC(C)OC(=O)OCCOC)c1F (centres unmarked) [Example 18, 1-(((2-Methoxyethoxy)carbonyl)oxy)ethyl 4-dodecyl-3-fluoro-1H-pyrrole-2-carboxylate]	100 to 250 nM	< 250 nM
CCCCCCCCCCCCCCCCc1c[nH]c(C(=O)O)c1F [Example 132, 3-Fluoro-4-hexadecyl-1H-pyrrole-2-carboxylic acid]	< 50 nM	< 250 nM
CCCCCCCCCCCOc1c[nH]c(C(=O)OC(C)OC(=O)OCCOC)c1F (centres unmarked) [Example 106, 1-(((2-Methoxyethoxy)carbonyl)oxy)ethyl 3-fluoro-4-(undecyloxy)-1H-pyrrole-2-carboxylate]	< 50 nM	< 250 nM
CCCCCCCCCCCCCc1c[nH]c(C(=O)OCc2oc(=O)oc2C)c1F [Example 30, (5-Methyl-2-oxo-1,3-dioxol-4-yl)methyl 3-fluoro-4-tridecyl-1H-pyrrole-2-carboxylate]	< 50 nM	< 250 nM
CCCCCCCCCCCCCc1c[nH]c(C(=O)O)c1C [Example 101, 3-Methyl-4-tridecyl-1H-pyrrole-2-carboxylic acid]	–	1000 to 5000 nM

Compound	IC50 [1]	IC50 [2]
CCCCCCCCCCCCCc1c[nH]c(C(=O)OCCCCCO)c1F [Example 35, 5-Hydroxypentyl 3-fluoro-4-tridecyl-1H-pyrrole-2-carboxylate]	100 to 250 nM	< 250 nM
CCCCCCCCCCCOc1c[nH]c(C(=O)OC(C)OC(=O)OCCOCCOCC)c1F (centres unmarked) [Example 107, 4-Oxo-3,5,8,11-tetraoxatridecan-2-yl 3-fluoro-4-(undecyloxy)-1H-pyrrole-2-carboxylate]	< 50 nM	< 250 nM
CCCCCCCCCCCCCc1c[nH]c(C(=O)OC(C)OC(=O)OCCCCCCCCC)c1F (centres unmarked) [Example 46, 1-(((Nonyloxy)carbonyl)oxy)ethyl 3-fluoro-4-tridecyl-1H-pyrrole-2-carboxylate]	–	> 5000 nM
CCCCCCCCCCCCCc1c[nH]c(C(=O)OCCCCCCCCO)c1F [Example 38, 8-Hydroxyoctyl 3-fluoro-4-tridecyl-1H-pyrrole-2-carboxylate]	–	250 to 1000 nM
CCCCCCCCCCCCCc1c[nH]c(C(=O)OC(C)OC(=O)OCCOCCOCC)c1Cl (centres unmarked) [Example 112, 4-Oxo-3,5,8,11-tetraoxatridecan-2-yl 3-chloro-4-tridecyl-1H-pyrrole-2-carboxylate]	100 to 250 nM	< 250 nM
CCCCCCCCCCCCCCCc1c[nH]c(C(=O)O)c1Cl [Example 62, 3-Chloro-4-pentadecyl-1H-pyrrole-2-carboxylic acid]	–	250 to 1000 nM
CCCCCCCCCCCCCc1c[nH]c(C(=O)OCCCO)c1F [Example 33, 3-Hydroxypropyl 3-fluoro-4-tridecyl-1H-pyrrole-2-carboxylate]	50 to 100 nM	< 250 nM
CCCCCCCCCCCOc1c[nH]c(C(=O)OC(C)OC(=O)OC(C)C)c1F (centres unmarked) [Example 105, 1-((Isopropoxycarbonyl)oxy)ethyl 3-fluoro-4-(undecyloxy)-1H-pyrrole-2-carboxylate]	< 50 nM	< 250 nM
CCCCCCCCCCCCCc1c[nH]c(C(=O)OCC(O)CO)c1F (centres unmarked) [Example 40, 2,3-Dihydroxypropyl 3-fluoro-4-tridecyl-1H-pyrrole-2-carboxylate]	< 50 nM	< 250 nM
CCCCCCCCCCCc1cc(F)c(C(=O)O)[nH]1 [Example 119, 3-Fluoro-5-undecyl-1H-pyrrole-2-carboxylic acid]	50 to 100 nM	< 250 nM
CCCCCCCCCCCC(F)(F)Cc1c[nH]c(C(=O)O)c1F [Example 94, 4-(2,2-Difluorotridecyl)-3-fluoro-1H-pyrrole-2-carboxylic acid]	100 to 250 nM	< 250 nM
CCCCCCCCCCCCCCCCc1cc(F)c(C(=O)O)[nH]1 [Example 123, 3-Fluoro-5-hexadecyl-1H-pyrrole-2-carboxylic acid]	50 to 100 nM	< 250 nM
CCCCCCCCCCCCCCCCCc1cc(F)c(C(=O)O)[nH]1 [Example 124, 3-Fluoro-5-heptadecyl-1H-pyrrole-2-carboxylic acid]	–	< 250 nM
CCCCCCCCCCCCOc1c[nH]c(C(=O)OCc2oc(=O)oc2C)c1 [Example 11, (5-methyl-2-oxo-1,3-dioxol-4-yl)methyl 4-(dodecyloxy)-1H-pyrrole-2-carboxylate]	100 to 250 nM	< 250 nM
CCCCCCCCCCCCOc1c[nH]c(C(=O)OCC(F)(F)F)c1 [Example 5, 2,2,2-Trifluoroethyl 4-(dodecyloxy)-1H-pyrrole-2-carboxylate]	–	250 to 1000 nM
CCCCCCCCCCCCc1cc(C#N)c(C(=O)O)[nH]1 [Example 129, 3-Cyano-5-dodecyl-1H-pyrrole-2-carboxylic acid]	–	1000 to 5000 nM
CCCCCCCCCCCCCCCCCc1c[nH]c(C(=O)O)c1F [Example 54, 3-Fluoro-4-heptadecyl-1H-pyrrole-2-carboxylic acid]	< 50 nM	< 250 nM
